According to PubChem BioAssay (NCI):
“And” between values parts separate entries of the source, which are not always exact repeats. Identical values can stand only once.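 Method: 48-hour compound exposure of cells in 96-well plates, five concentrations, linear interpolation of endpoints. The concentration for 50% growth inhibition is given as GI50. The concentration for full growth arrest is given as TGI.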

Legend:
Test in all cases: NCI tumour cell line growth inhibition, 48 h
786-0 renal = test system: 786-0 renal
SK-OV-3 ovarian = test system: SK-OV-3 ovarian
A498 renal = test system: A498 renal
SK-MEL-5 melanoma = test system: SK-MEL-5 melanoma
HCC-2998 colon = test system: HCC-2998 colon
DMS 273 small cell lung = test system: DMS 273 small cell lung
HCT-116 colon = test system: HCT-116 colon
HOP-18 NSCLC = test system: HOP-18 NSCLC
MDA-MB-435 = test system: MDA-MB-435
NCI/ADR-RES ovarian = test system: NCI/ADR-RES ovarian

CCOC(=O)c1oc2c(OC)ccc3c2c1CCC3
TGI (786-0 renal): > 100 µM
TGI (SK-OV-3 ovarian): > 100 µM
TGI (A498 renal): > 100 µM
TGI (SK-MEL-5 melanoma): > 100 µM
TGI (HCC-2998 colon): > 100 µM
TGI (DMS 273 small cell lung): > 100 µM

CC(=O)OCCOCn1c2ccccc2c2c3c(c4c5ccccc5n(COCCOC(C)=O)c4c21)C(=O)N(Cc1ccccc1)C3=O
TGI (786-0 renal): > 100 µM
TGI (HCT-116 colon): > 100 µM
TGI (SK-OV-3 ovarian): > 100 µM
TGI (A498 renal): > 100 µM
TGI (SK-MEL-5 melanoma): > 100 µM
TGI (HCC-2998 colon): > 100 µM
TGI (DMS 273 small cell lung): > 100 µM

O/N=C1/CCCC/C1=C/C=C/c1ccccc1
TGI (786-0 renal): 55 µM
TGI (HCT-116 colon): 29.7 µM
TGI (SK-OV-3 ovarian): > 100 µM
TGI (A498 renal): 41.2 µM
TGI (HOP-18 NSCLC): 78.1 µM
TGI (SK-MEL-5 melanoma): 30.2 µM
TGI (HCC-2998 colon): 45.2 µM

O=S(=O)(C1=CC(S(=O)(=O)c2ccccc2)COC1)c1ccccc1 (stereo not drawn)
TGI (786-0 renal): > 100 µM
TGI (HCT-116 colon): > 100 µM
TGI (SK-OV-3 ovarian): > 100 µM
TGI (HCC-2998 colon): > 100 µM
TGI (DMS 273 small cell lung): > 100 µM

CC(=O)N[C@H](C)[C@@H](O)[C@@H](C)[C@@H]1OC(=O)/C=C/C=C(C)\C=C\[C@]2(C)C[C@@H](NS(C)(=O)=O)C=C[C@@H]2/C=C(C)/C=C/[C@H]1C
GI50 (786-0 renal): 0.0469 µM and 0.0185 µM
TGI (786-0 renal): > 43.5 µM
GI50 (HCT-116 colon): 0.00172 µM and 0.00435 µM
TGI (HCT-116 colon): > 43.5 µM
GI50 (SK-OV-3 ovarian): 0.00446 µM and 0.00599 µM
TGI (SK-OV-3 ovarian): 0.0397 µM
GI50 (MDA-MB-435): 0.00268 µM and 0.00435 µM
TGI (MDA-MB-435): > 43.5 µM
GI50 (A498 renal): 0.0068 µM and 0.0121 µM
GI50 (SK-MEL-5 melanoma): 0.00313 µM and 0.00786 µM
TGI (SK-MEL-5 melanoma): 0.0151 µM and 0.0256 µM
TGI (HCC-2998 colon): > 43.5 µM
GI50 (NCI/ADR-RES ovarian): 0.235 µM and 0.127 µM
TGI (NCI/ADR-RES ovarian): > 43.5 µM

O=C(COc1ccc(/C=C2\Oc3ccc4ccccc4c3C2=O)cc1)c1ccc([N+](=O)[O-])cc1
GI50 (786-0 renal): 14.7 µM
TGI (786-0 renal): 34.6 µM
GI50 (HCT-116 colon): 3.03 µM
TGI (HCT-116 colon): 13.8 µM
GI50 (SK-OV-3 ovarian): 24.2 µM
TGI (SK-OV-3 ovarian): 73.7 µM
GI50 (MDA-MB-435): 12.2 µM
TGI (MDA-MB-435): 29.1 µM
GI50 (A498 renal): 41.5 µM
TGI (A498 renal): > 100 µM
GI50 (SK-MEL-5 melanoma): 13.2 µM
TGI (SK-MEL-5 melanoma): 28.9 µM
GI50 (HCC-2998 colon): 16.7 µM
TGI (HCC-2998 colon): 31.6 µM
GI50 (NCI/ADR-RES ovarian): 21.8 µM
TGI (NCI/ADR-RES ovarian): 82.1 µM

Oc1ccc(NC(=S)Nc2ccccc2)cc1
GI50 (786-0 renal): > 100 µM
TGI (786-0 renal): > 100 µM
GI50 (HCT-116 colon): > 100 µM
TGI (HCT-116 colon): > 100 µM
GI50 (SK-OV-3 ovarian): > 100 µM
TGI (SK-OV-3 ovarian): > 100 µM
GI50 (MDA-MB-435): > 100 µM
TGI (MDA-MB-435): > 100 µM
GI50 (A498 renal): > 100 µM
TGI (A498 renal): > 100 µM
GI50 (SK-MEL-5 melanoma): > 100 µM
TGI (SK-MEL-5 melanoma): > 100 µM
GI50 (HCC-2998 colon): > 100 µM
TGI (HCC-2998 colon): > 100 µM
GI50 (NCI/ADR-RES ovarian): > 100 µM
TGI (NCI/ADR-RES ovarian): > 100 µM

O=C(Nc1ccc(OS(=O)(=O)c2ccc(F)cc2)cc1)C12CC3CC(CC(C3)C1)C2
GI50 (786-0 renal): 8.33 µM
TGI (786-0 renal): 44.5 µM
GI50 (HCT-116 colon): 0.929 µM
TGI (HCT-116 colon): > 100 µM
GI50 (SK-OV-3 ovarian): 10.3 µM
TGI (SK-OV-3 ovarian): 47.3 µM
GI50 (MDA-MB-435): > 27.9 µM
TGI (MDA-MB-435): > 100 µM
GI50 (A498 renal): 0.936 µM
TGI (A498 renal): 22.4 µM
GI50 (SK-MEL-5 melanoma): 4.12 µM
TGI (SK-MEL-5 melanoma): > 100 µM
GI50 (HCC-2998 colon): > 28.2 µM
TGI (HCC-2998 colon): > 100 µM
GI50 (NCI/ADR-RES ovarian): 3.15 µM
TGI (NCI/ADR-RES ovarian): > 100 µM

COc1ccc(C(=O)/C=C/c2sc(Cl)nc2Cl)cc1
GI50 (786-0 renal): 1.94 µM
TGI (786-0 renal): 4.94 µM
GI50 (HCT-116 colon): 0.49 µM
TGI (HCT-116 colon): 1.84 µM
GI50 (SK-OV-3 ovarian): 7.68 µM
TGI (SK-OV-3 ovarian): 23.7 µM
GI50 (MDA-MB-435): 3.11 µM
TGI (MDA-MB-435): 11.4 µM
GI50 (A498 renal): 4.67 µM
TGI (A498 renal): 20.2 µM
GI50 (SK-MEL-5 melanoma): 1.53 µM
TGI (SK-MEL-5 melanoma): 4.15 µM
GI50 (HCC-2998 colon): 1.72 µM
TGI (HCC-2998 colon): 3.31 µM
GI50 (NCI/ADR-RES ovarian): 2.55 µM
TGI (NCI/ADR-RES ovarian): 10.2 µM
